Data as given in patent US7683089B1, “4-(Phenylmethyl and substituted phenylmethyl)-imidazole-2-thiones acting as specific alpha2 adrenergic agonists” (Allergan, Inc, priority 2004, dated 2010).

What was measured:
[1] = biological target: T1, alpha2B adrenergic receptor (Homo sapiens, UniProt P18089); experiment: Receptor Selection and Amplification Technology (RSAT) assay, alpha2B; format: cell-based; settings: RSAT in NIH-3T3 cells; ratio of maximal effect of drug to that of standard full agonist brimonidine (UK14304); NA = not active at concentrations less than 10 micromolar
T1 construct: expressed in transfected cells; host or cells: NIH-3T3 cells
T1 sequence (P18089 1-450): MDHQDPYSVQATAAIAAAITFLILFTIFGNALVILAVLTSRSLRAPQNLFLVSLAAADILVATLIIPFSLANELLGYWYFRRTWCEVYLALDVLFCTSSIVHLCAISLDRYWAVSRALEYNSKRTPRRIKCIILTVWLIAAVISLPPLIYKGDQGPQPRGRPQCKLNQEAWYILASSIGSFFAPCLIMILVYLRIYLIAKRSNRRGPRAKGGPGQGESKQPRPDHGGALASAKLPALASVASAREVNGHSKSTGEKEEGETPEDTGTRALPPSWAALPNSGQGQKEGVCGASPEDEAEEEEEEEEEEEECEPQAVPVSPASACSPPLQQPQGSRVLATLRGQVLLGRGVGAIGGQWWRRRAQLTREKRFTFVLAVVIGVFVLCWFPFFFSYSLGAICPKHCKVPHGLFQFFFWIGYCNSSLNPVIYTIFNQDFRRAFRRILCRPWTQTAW
Description: (§1) The imidazole-2-thione compounds of the invention are agonists of alpha2 adrenergic receptors. […] Al., 1995, Pharmacol. Toxicol. 76, pp. 308-311 (incorporated herein by reference) and is also described below. Another reference pertinent to this assay is Conklin et al. (1993) Nature 363:274-6, also incorporated herein by reference.
(§2) Receptor Selection and Amplification Technology (RSAT) Assay
(§3) The RSAT assay measures a receptor-mediated loss of contact inhibition that results in selective proliferation of receptor-containing cells in a mixed population of confluent cells. The increase in cell number is assessed with an appropriate transfected marker gene such as β-galactosidase, the activity of which can be easily measured in a 96-well format. Receptors that activate the G protein, Gq, elicit this response. Alpha2 receptors, which normally couple to Gi, activate the RSAT response when coexpressed with a hybrid Gq protein that has a Gi receptor recognition domain, called Gq/i5.
(§4) NIH-3T3 cells are plated at a density of 2×10^6 cells in 15 cm dishes and maintained in Dulbecco's modified Eagle's medium supplemented with 10% calf serum. One day later, cells are cotransfected by calcium phosphate precipitation with mammalian expression plasmids encoding p-SV-β-galactosidase (5-10 μg), receptor (1-2 μg) and G protein (1-2 μg). 40 μg salmon sperm DNA may also be included in the transfection mixture. Fresh media is added on the following day and 1-2 days later, cells are harvested and frozen in 50 assay aliquots. Cells are thawed and 100 μl added to 100 μl aliquots of various concentrations of drugs in triplicate in 96-well dishes. Incubations continue 72-96 hr at 37° C. After washing with phosphate-buffered saline, β-galactosidase enzyme activity is determined by adding 200 μl of the chromogenic substrate (consisting of 3.5 mM o-nitrophenyl-β-D-galactopyranoside and 0.5% nonidet P-40 in phosphate buffered saline), incubating overnight at 30° C. and measuring optical density at 420 nm. The absorbance is a measure of enzyme activity, which depends on cell number and reflects a receptor-mediated cell proliferation. The efficacy or intrinsic activity is calculated as a ratio of the maximal effect of the drug to the maximal effect of a standard full agonist for each receptor subtype. […]
The RSAT assay measures a receptor-mediated loss of contact inhibition that results in selective proliferation of receptor-containing cells in a mixed population of confluent cells. The increase in cell number is assessed with an appropriate transfected marker gene such as ∃-galactosidase, the activity of which can be easily measured in a 96-well format. […]

[2] = biological target: T2, alpha2A adrenergic receptor (Homo sapiens, UniProt P08913); experiment: Receptor Selection and Amplification Technology (RSAT) assay, alpha2A; format: cell-based; settings: RSAT in NIH-3T3 cells; ratio of maximal effect of drug to that of standard full agonist brimonidine (UK14304); NA = not active at concentrations less than 10 micromolar
T2 construct: expressed in transfected cells; host or cells: NIH-3T3 cells
T2 sequence (P08913 1-465): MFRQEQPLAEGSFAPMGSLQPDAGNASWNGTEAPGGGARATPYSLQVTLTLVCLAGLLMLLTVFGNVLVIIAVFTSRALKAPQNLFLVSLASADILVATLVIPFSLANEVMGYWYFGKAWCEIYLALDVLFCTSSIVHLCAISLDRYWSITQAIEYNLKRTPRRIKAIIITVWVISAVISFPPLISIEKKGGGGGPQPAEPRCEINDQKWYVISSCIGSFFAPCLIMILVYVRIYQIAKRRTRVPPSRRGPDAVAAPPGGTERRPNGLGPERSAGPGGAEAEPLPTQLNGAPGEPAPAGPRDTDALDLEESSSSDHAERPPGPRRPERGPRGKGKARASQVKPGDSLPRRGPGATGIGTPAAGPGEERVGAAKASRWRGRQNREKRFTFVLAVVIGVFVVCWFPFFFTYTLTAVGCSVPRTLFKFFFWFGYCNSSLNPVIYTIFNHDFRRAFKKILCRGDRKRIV
Description: as §1, §2, §3
as §4, with “Fresh media is added on the following day and 1-2 days later, cells are harvested and frozen in 50 assay aliquots. Cells are thawed and 100 μl added to 100 μl aliquots of various concentrations of drugs in triplicate in 96-well dishes. Incubations continue 72-96 hr at 37° C.” left out

[3] = biological target: T3, alpha2C adrenergic receptor (Homo sapiens, UniProt P18825); experiment: Receptor Selection and Amplification Technology (RSAT) assay, alpha2C; format: cell-based; settings: RSAT in NIH-3T3 cells; ratio of maximal effect of drug to that of standard full agonist brimonidine (UK14304); NA = not active at concentrations less than 10 micromolar
T3 construct: expressed in transfected cells; host or cells: NIH-3T3 cells
T3 sequence (P18825 1-462): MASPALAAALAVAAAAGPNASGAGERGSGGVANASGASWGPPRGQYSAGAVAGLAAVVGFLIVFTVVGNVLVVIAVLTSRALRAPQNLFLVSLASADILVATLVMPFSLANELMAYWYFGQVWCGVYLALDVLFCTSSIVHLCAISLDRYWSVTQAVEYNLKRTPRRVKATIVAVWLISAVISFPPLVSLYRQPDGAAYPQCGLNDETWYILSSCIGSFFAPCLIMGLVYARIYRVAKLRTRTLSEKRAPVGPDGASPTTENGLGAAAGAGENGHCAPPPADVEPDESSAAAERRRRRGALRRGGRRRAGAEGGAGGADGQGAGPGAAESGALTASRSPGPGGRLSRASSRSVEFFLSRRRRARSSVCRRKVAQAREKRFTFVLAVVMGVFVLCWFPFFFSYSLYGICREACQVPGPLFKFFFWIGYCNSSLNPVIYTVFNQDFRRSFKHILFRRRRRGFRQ
Description: as §1, §2, §3
as §4, with “Fresh media is added on the following day and 1-2 days later, cells are harvested and frozen in 50 assay aliquots. Cells are thawed and 100 μl added to 100 μl aliquots of various concentrations of drugs in triplicate in 96-well dishes. Incubations continue 72-96 hr at 37° C.” left out

[4] = tested on: male Sprague-Dawley rats; experiment: Sedative activity (exploratory behavior/locomotor skills); format: in vivo, rat; settings: intraperitoneally, up to a dose of 1 mg/kg, 30 minutes after injection
Procedure: To test sedation, six male Sprague-Dawley rats are given up to 3 mg/kg of the test compound in a saline or DMSO vehicle by intraperitoneal injection (i.p.). Sedation is graded 30 minutes following administration of the drug by monitoring locomotor skills as follows.
The Sprague-Dawley rats are weighed and 1 ml/kg body weight of an appropriate concentration (ie. 3 mg/ml for a final dose of 3 mg/kg) drug solution is injected intraperitoneally. Typically the test compound is formulated in approximately 10 to 50% DMSO. The results are compared to controls that are injected with 1 ml/kg saline or 10 to 50% DMSO. Rat activity is then determined 30 minutes after injection of the drug solution. Rats are placed in a dark covered chamber and a digicom analyzer (Omnitech Electronic) quantitates their exploratory behavior for a five-minute period. The machine records each time the rat interrupts an array of 32 photoelectric beams in the X and Y orientation.

Row | SMILES | Intrinsic Activity Alpha 2B [1] | Intrinsic Activity Alpha 2A [2] | Intrinsic Activity Alpha 2C [3] | sedative effect [4]
1 | CC(c1ccccc1)c1c[nH]c(=S)[nH]1 (stereo not drawn) [Compound 4, 4-(1-phenyl-ethyl)-1,3-dihydro-imidazole-2-thione] | 1.11 |  |  | 
2 | CC(c1c[nH]c(=S)[nH]1)c1cccc(C(F)(F)F)c1F (stereo not drawn) [Compound 3, 4-[1-(2-fluoro-3-trifluoromethyl-phenyl)-ethyl]-1,3-dihydro-imidazole-2-thione] | 1.04 | 0.88 | 0.84 | no sedative effect
3 | CC(c1c[nH]c(=S)[nH]1)c1cccc(Cl)c1Cl (stereo not drawn) [Compound 1, 4-[1-(2,3-dichloro-phenyl)-ethyl]-1,3-dihydro-imidazole-2-thione] | 0.85 | 0.87 | 1.03 | no sedative effect
4 | CC(c1c[nH]c(=S)[nH]1)c1cccc(F)c1F (stereo not drawn) [Compound 2, 4-[1-(2,3-difluoro-phenyl)-ethyl]-1,3-dihydro-imidazole-2-thione] | 0.99 | 0.66 | 0.83 | 
